Measurements as given in US10010560B2, “Small molecule HSP70 inhibitors” (THE TRUSTEES OF THE UNIVERSITY OF PENNSYLVANIA, priority 2014, dated 2018).

Legend:
[1] = system: melanoma tumor cell line WM989; experiment: Combination with BRAF inhibitor Vemurafenib, viability; format: cell-based, human
Source text: FIG. 6 is a line graph illustrating that PET-16 synergizes with the BRAF inhibitor Vemurafenib to reduce the viability of the melanoma tumor cell line WM989 (▪). WM989 cells treated singularly with Vemurafenib are depicted by (●). No synergy was detected between Vemurafenib and PES-Cl.

ADP-HSP70 N505D = target: T1, ADP-HSP70 N505D (Homo sapiens, UniProt P0DMV8, E110D/N505D); experiment: ITC, mutated full-length ADP-HSP70; format: binding; details: ADP-HSP70 mutant N505D
T1 construct: The full-length HSP70 and DnaK mutants were constructed by PCR-based site-directed mutagenesis; His6 (N); made in house; host or cells: E. coli BL21 Star (DE3)
T1 sequence (P0DMV8 whole entry E110D/N505D): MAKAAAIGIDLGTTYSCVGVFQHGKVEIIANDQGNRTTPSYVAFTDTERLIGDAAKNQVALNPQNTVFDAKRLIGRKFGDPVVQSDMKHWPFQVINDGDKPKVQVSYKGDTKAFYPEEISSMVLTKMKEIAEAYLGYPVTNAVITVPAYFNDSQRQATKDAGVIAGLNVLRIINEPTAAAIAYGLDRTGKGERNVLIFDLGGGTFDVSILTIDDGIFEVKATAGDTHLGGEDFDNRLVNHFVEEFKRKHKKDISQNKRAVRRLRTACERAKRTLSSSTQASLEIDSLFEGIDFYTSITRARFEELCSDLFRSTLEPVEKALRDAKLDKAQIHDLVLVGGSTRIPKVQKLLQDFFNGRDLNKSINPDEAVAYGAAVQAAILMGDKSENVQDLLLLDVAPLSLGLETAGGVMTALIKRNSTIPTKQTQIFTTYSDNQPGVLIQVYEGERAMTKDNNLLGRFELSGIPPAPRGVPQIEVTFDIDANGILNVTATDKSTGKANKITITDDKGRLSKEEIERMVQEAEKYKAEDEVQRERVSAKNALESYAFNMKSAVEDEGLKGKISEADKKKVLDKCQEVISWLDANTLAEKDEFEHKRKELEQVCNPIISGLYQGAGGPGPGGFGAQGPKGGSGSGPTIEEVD
Source text: (§1) The human stress-inducible HSP70 (residues 1-641 or 386-616 of SEQ ID NO: 2) and E. coli DnaK (residues 1-638, 389-607, or 393-507 of SEQ ID NO: 4) were cloned into the pET25 vector (EMD Millipore Chemicals, Inc., Billerica, Mass., USA) between the NdeI and XhoI restriction sites. The full-length HSP70 and DnaK mutants were constructed by PCR-based site-directed mutagenesis using the QuikChange™ Site-Directed Mutagenesis Kit (Agilent Technologies, Inc., Santa Clara, Calif., USA). All plasmid inserts were verified by DNA sequencing. All HSP70 and DnaK variants were produced with a N-terminal His6-tag in the E. coli BL21 Star (DE3) strain (Invitrogen catalog number C6010-03). The resulting strains were grown at 37° C. in LB medium containing 50 μg/mL of carbenicillin (Sigma-Aldrich Co., St. Louis, Mo., USA). At an OD600 about 0.3 to about 0.5, protein expression was induced with 0.5 mM isopropyl-β-D-thiogalactopyranoside (IPTG), and cells were subsequently grown at 25° C. for about 16 h. Cells were collected by centrifugation and resuspended in the Bugbuster® Master Mix (EMD Millipore Chemicals catalog number 71456-4), supplemented with protease inhibitors, 1 mM diethiothreitol (DTT) and 20 mM imidazole. The His6-tagged fusion proteins were isolated on Ni^2+-chelating resins (Ni-NTA Superflow, Qiagen catalog number 30410) by standard procedures. When necessary, size-exclusion chromatography on a Superdex® 200 or a Superose® 6 10/300 GL columns (GE Healthcare) analytical column pre-equilibrated with 1× Dulbecco's Phosphate Buffered Saline (DPBS—Invitrogen 14190-136), 1 mM Tris-HCl (pH 7.4) or 10 mM Tris-HCl (pH 7) was used as the final purification step. The purified DnaK proteins were dialyzed thoroughly against 1× DPBS with 5 mM DTT at 4° C., for crystallization trials involving the small molecule inhibitor PET-16. For isothermal titration calorimetry studies, all HSP70 and DnaK variants were dialyzed extensively against the buffers as noted below under the section entitled “Isothermal Titration calorimetry Studies”. The dialyzed proteins were subsequently microcentrifugated at 15,000×g for 5 min at 4° C. and aliquots of the soluble proteins were stored at −80° C.
(§2) All ITC experiments were performed using a MicroCal VP-ITC isothermal titration calorimeter (MicroCal). Both full-length HSP70 and DnaK proteins and DnaK (aa 393-507) proteins were prepared in 1 mM Tris-HCl (pH 7.4) buffer containing 3% dimethylsulfoxide (DMSO). The HSP70 (aa 386-616) protein was prepared in buffer containing 3% DMSO and 10 mM Tris-HCl, pH 7. The syringe was loaded with purified protein in either 1 mM Tris-HCl (pH 7.4) buffer containing 3% DMSO or 10 mM Tris-HCl (pH 7) buffer containing 3% DMSO. The sample cell of the calorimeter was loaded with PES, PET-16 or NRLLLTG (SEQ ID NO: 7) prepared in the same buffer. All solutions were degassed for 5 min.
(§3) The titrations involving the full-length purified proteins were performed at 25° C. with injection volumes of 12 μL and a spacing of 300 s. The titrations involving the purified HSP70 (aa 386-616) and DnaK (aa 393-507) were performed at 42° C. with injection volumes of 12 μL and a spacing of 300 s. Heat from the pre-injection was not used during fitting. The data were fit using a one-site binding model available in the Origin® ITC data analysis software (MicroCal Origin® V5.0, MicroCal Software, Northampton, Mass.). Error values obtained from the MicroCal Origin® V5.0 software were averaged and reported.
(§4) The information from crystal structure analysis pointed to particular amino acid residues as potential contact sites for interaction with PET-16. Single point mutants were thereby introduced in the context of a full-length DnaK protein, as well as at the corresponding residues within HSP70; these mutant proteins were analyzed by ITC for ability to bind to PET-16. The DnaK mutations included residues L392D, P396L, L399R, G482D, A503D and […]; those in HSP70 were L394D, P398L, L401R, G484D, N505D and D506A. […]

ADP-HSP70 G484D = target: T2, ADP-HSP70 G484D (Homo sapiens, UniProt P0DMV8, E110D/G484D); experiment: ITC, mutated full-length ADP-HSP70; format: binding; details: ADP-HSP70 mutant G484D
T2 construct: The full-length HSP70 and DnaK mutants were constructed by PCR-based site-directed mutagenesis; His6 (N); made in house; host or cells: E. coli BL21 Star (DE3)
T2 sequence (P0DMV8 whole entry E110D/G484D): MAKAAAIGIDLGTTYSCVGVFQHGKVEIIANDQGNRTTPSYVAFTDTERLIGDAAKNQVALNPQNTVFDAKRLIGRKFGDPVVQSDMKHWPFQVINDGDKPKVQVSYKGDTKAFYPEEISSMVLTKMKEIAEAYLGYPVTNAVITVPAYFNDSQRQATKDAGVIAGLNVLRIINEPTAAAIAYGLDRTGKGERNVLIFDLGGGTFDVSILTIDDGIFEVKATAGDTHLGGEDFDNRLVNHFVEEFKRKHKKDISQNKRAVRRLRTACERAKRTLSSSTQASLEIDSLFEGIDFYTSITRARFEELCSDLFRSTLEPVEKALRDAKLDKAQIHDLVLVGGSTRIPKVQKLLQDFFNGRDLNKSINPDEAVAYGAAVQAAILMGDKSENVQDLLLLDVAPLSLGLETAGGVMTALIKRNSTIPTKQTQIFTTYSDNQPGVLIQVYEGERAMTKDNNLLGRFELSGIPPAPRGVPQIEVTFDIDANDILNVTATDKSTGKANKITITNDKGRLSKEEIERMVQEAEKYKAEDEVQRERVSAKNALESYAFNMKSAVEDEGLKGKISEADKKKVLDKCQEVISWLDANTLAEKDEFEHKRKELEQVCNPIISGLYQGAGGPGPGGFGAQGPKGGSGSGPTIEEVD
Source text: as §1, §2, §3, §4

ADP-HSP70 D506A = target: T3, ADP-HSP70 D506A (Homo sapiens, UniProt P0DMV8, D506A/E110D); experiment: ITC, mutated full-length ADP-HSP70; format: binding; details: ADP-HSP70 mutant D506A
T3 construct: The full-length HSP70 and DnaK mutants were constructed by PCR-based site-directed mutagenesis; His6 (N); made in house; host or cells: E. coli BL21 Star (DE3)
T3 sequence (P0DMV8 whole entry E110D/D506A): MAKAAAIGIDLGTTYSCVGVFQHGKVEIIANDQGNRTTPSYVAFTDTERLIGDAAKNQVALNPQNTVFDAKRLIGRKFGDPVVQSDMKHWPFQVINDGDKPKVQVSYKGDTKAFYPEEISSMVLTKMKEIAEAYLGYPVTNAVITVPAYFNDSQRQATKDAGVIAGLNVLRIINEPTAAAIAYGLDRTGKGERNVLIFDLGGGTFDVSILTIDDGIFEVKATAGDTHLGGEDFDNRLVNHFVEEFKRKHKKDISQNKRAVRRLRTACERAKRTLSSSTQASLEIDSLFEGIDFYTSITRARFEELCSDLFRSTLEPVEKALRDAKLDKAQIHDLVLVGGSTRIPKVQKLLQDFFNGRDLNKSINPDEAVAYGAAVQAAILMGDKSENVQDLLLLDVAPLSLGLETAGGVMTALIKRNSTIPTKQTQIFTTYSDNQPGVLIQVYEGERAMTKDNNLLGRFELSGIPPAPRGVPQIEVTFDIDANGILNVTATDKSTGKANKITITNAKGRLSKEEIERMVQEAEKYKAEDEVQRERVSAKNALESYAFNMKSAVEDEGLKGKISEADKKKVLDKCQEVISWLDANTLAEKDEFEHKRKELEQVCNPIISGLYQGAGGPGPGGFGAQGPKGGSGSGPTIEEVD
Source text: as §1, §2, §3, §4

ADP-HSP70 P398L = target: T4, ADP-HSP70 P398L (Homo sapiens, UniProt P0DMV8, E110D/P398L); experiment: ITC, mutated full-length ADP-HSP70; format: binding; details: ADP-HSP70 mutant P398L
T4 construct: The full-length HSP70 and DnaK mutants were constructed by PCR-based site-directed mutagenesis; His6 (N); made in house; host or cells: E. coli BL21 Star (DE3)
T4 sequence (P0DMV8 whole entry E110D/P398L): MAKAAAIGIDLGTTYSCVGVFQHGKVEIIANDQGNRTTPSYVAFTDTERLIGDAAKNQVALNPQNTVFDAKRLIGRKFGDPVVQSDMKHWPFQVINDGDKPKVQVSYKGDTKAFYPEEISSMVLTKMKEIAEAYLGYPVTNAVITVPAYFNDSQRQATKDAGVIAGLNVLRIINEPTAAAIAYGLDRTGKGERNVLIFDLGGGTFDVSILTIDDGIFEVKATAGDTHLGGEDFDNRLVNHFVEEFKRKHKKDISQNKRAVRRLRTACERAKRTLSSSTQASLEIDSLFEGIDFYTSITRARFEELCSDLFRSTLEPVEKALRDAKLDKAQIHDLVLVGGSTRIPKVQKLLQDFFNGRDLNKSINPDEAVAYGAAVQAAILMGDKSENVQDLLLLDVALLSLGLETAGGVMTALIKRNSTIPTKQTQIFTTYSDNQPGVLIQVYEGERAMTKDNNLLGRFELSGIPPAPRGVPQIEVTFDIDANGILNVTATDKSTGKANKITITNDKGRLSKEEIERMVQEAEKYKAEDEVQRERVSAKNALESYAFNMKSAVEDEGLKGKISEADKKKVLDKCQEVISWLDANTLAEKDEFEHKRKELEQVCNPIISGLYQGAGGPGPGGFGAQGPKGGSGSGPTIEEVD
Source text: as §1, §2, §3, §4

ADP-HSP70 L394D = target: T5, ADP-HSP70 L394D (Homo sapiens, UniProt P0DMV8, E110D/L394D); experiment: ITC, mutated full-length ADP-HSP70; format: binding; details: ADP-HSP70 mutant L394D
T5 construct: The full-length HSP70 and DnaK mutants were constructed by PCR-based site-directed mutagenesis; His6 (N); made in house; host or cells: E. coli BL21 Star (DE3)
T5 sequence (P0DMV8 whole entry E110D/L394D): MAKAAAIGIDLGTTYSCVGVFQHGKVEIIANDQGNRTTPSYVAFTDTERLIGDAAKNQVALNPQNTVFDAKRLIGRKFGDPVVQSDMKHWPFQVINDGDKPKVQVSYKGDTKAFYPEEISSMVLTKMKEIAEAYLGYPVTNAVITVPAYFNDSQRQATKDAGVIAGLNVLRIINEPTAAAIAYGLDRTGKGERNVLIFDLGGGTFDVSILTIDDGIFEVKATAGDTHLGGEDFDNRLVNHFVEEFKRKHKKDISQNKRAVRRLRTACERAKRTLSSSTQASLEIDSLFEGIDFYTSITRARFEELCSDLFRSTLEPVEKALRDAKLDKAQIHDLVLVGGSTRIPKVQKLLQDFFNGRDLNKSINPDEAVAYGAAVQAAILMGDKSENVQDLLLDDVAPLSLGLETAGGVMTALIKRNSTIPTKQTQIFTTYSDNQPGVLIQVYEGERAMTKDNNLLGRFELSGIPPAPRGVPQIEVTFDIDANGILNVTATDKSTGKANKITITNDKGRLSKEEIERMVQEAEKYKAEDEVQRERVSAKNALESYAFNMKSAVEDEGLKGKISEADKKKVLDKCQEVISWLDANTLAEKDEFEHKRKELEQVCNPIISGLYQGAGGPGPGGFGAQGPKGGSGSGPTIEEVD
Source text: as §1, §2, §3, §4

ADP-HSP70 L401R = target: T6, ADP-HSP70 L401R (Homo sapiens, UniProt P0DMV8, E110D/L401R); experiment: ITC, mutated full-length ADP-HSP70; format: binding; details: ADP-HSP70 mutant L401R
T6 construct: The full-length HSP70 and DnaK mutants were constructed by PCR-based site-directed mutagenesis; His6 (N); made in house; host or cells: E. coli BL21 Star (DE3)
T6 sequence (P0DMV8 whole entry E110D/L401R): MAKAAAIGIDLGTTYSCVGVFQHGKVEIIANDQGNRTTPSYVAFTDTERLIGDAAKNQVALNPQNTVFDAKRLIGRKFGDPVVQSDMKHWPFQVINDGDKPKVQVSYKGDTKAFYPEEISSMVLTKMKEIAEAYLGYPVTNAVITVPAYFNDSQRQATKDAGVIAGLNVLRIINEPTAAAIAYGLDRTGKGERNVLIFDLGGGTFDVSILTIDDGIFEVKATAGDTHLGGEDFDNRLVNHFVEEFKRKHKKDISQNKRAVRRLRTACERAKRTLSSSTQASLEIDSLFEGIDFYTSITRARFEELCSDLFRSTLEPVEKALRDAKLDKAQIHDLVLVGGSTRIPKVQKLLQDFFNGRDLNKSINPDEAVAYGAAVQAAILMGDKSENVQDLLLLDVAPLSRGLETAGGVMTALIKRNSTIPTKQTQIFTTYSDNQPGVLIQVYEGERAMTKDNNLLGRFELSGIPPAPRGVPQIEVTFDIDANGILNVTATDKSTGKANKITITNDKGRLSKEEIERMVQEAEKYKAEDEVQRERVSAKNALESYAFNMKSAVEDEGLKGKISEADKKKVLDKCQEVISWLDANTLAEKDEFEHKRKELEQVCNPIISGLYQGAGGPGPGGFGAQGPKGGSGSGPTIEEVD
Source text: as §1, §2, §3, §4

C(#C[P+](c1ccccc1)(c1ccccc1)c1ccccc1)c1ccccc1.[Br-] [PET-16, triphenyl(phenylethynyl)phosphonium bromide]
synergy with PLX4032 (Vemurafenib) [1]: able to synergize
Kd (ADP-HSP70 N505D): 147 ± 6.5 µM
Kd (ADP-HSP70 G484D): 98.8 ± 5.1 µM
Kd (ADP-HSP70 D506A): 112 ± 3.8 µM
Kd (ADP-HSP70 P398L): 23.4 ± 1.2 µM
Kd (ADP-HSP70 L394D): 30.8 ± 0.6 µM
Kd (ADP-HSP70 L401R): 43.2 ± 9.9 µM
